The values that follow come from US10160747B2, “Compounds and methods for kinase modulation, and indications therefor” (Plexxikon Inc., priority 2016, dated 2018).

Test [1] relates to MOLM-14 F691L (endogenous FLT3 ITD and transfected FLT3 F691L). Briefly: MOLM-14 F691L cell proliferation assay (CellTiter-Glo). The conditions noted are these: Homo sapiens, MOLM-14, 72 h; 3 d growth, GMean. It is filed as cell-based. Summed up:
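MOLM-14 cells (FLT3 ITD) carrying D835Y or F691L, 1×10^4 cells/well, eight 1:3 dilutions from 1 μM final, 0.2% DMSO, 3 days at 37 °C, 5% CO2. Viability by CellTiter-Glo luminescence (ATP content); IC50 from concentration-response.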
(In general: Cellular ATP, detected with luciferase, serves as a proxy for viable cell number.)

A further test has as its target T1, c-KIT (Homo sapiens, UniProt P10721).
T1 construct: purchased Millipore 14-559K
Briefly: c-KIT recombinant enzyme kinase assay (AlphaScreen). The conditions noted are these: 100 ATP, 8 pt. It is filed as biochemical. Summed up: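 IC50 values are derived from reduced AlphaScreen signal as inhibitors block tyrosine phosphorylation of a biotinylated poly(Glu4-Tyr) peptide (30 nM) by recombinant kinase. FLT3 variants are run at 10 μM ATP, c-KIT at 100 μM.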
A general note: Bead proximity is the source of the signal in Alpha formats.

A further test has as its target CSF1R (Homo sapiens, UniProt P07333). Briefly: CSF1R 100 ATP 8 pt kinase assay (Table 6). It is filed as biochemical. From the text: The following Table 6 provides data indicating FLT3 ITD, D835Y and F691L; c-KIT and CSF1R biochemical and/or cell inhibitory activity for exemplary compounds as described herein.

T1 sequence (P10721 26-976): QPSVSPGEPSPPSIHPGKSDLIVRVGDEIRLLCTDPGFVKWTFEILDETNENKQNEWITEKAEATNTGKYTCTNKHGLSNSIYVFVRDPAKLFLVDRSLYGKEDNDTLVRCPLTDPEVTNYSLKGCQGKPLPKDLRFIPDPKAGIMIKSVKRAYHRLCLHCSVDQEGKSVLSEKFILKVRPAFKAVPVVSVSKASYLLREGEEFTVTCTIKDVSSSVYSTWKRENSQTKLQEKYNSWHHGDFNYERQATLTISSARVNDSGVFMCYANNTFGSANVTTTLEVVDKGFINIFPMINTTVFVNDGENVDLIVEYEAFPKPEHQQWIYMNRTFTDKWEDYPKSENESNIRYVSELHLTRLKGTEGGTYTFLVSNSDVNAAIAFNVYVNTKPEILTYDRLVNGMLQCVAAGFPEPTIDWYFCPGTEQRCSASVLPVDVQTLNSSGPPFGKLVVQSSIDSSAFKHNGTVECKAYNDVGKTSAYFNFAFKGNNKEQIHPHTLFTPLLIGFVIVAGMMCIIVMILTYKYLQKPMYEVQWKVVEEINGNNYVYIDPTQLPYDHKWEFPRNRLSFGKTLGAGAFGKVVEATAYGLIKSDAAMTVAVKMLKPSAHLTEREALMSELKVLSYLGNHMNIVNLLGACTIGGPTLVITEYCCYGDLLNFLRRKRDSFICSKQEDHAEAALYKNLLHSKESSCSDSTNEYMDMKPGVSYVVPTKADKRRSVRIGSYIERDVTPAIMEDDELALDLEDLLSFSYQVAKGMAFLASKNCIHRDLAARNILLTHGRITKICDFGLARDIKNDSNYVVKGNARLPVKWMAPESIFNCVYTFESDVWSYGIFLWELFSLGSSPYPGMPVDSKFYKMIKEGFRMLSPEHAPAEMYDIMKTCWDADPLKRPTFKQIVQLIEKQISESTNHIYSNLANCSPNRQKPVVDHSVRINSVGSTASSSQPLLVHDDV
Sequence of CSF1R (P07333 20-972, species assumed): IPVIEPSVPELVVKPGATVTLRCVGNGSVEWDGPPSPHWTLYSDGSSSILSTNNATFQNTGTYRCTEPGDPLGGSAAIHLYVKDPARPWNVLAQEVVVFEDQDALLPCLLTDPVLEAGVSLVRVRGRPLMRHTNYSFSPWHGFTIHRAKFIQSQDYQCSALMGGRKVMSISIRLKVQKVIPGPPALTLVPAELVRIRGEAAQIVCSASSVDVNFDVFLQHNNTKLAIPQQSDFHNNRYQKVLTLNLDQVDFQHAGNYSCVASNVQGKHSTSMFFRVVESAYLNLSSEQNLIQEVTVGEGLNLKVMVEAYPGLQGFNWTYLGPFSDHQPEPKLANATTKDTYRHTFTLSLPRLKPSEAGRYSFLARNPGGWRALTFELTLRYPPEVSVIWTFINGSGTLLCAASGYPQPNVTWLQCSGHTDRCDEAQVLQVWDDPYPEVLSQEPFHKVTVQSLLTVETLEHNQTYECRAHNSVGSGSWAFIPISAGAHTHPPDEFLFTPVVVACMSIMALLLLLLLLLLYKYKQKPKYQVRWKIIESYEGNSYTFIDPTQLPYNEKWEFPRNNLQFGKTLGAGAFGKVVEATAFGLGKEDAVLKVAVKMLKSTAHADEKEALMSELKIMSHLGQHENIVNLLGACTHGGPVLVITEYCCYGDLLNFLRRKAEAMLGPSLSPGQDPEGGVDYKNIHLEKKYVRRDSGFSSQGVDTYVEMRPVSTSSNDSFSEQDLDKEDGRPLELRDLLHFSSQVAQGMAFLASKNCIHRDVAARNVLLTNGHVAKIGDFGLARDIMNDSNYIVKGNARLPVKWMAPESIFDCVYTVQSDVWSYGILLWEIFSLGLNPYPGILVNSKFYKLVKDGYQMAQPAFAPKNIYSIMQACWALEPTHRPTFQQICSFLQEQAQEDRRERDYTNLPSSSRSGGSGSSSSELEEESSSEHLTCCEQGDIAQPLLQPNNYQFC

For `O=C(Cc1ccc(-c2cnc3[nH]nc(C4CC4)c3c2)cc1)Nc1cncc(C(F)(F)F)c1` [Compound P-0073, 2-[4-(3-cyclopropyl-1H-pyrazolo[3,4-b]pyridin-5-yl)phenyl]-N-[5-(trifluoromethyl)-3-pyridyl]acetamide], the 50% inhibitory concentration (IC50) (in test [1]; at c-KIT; at CSF1R) was 0.0001 to 10 µM each time.
As for `O=C(Cc1ccc(-c2cnc3[nH]nc(C4CC4)c3c2)cc1F)Nc1cncc(C(F)(F)F)c1` [Compound P-0072, 2-[4-(3-cyclopropyl-1H-pyrazolo[3,4-b]pyridin-5-yl)-2-fluoro-phenyl]-N-[5-(trifluoromethyl)-3-pyridyl]acetamide], the IC50 (in test [1]; on c-KIT; against CSF1R) was 0.0001 to 10 µM in each case.
Take `Cn1cc(Nc2ncc(-c3ccc(CC(=O)Nc4cncc(C(C)(F)F)c4)c(F)c3)cn2)cn1` [Compound P-0090, N-[5-(1,1-difluoroethyl)-3-pyridyl]-2-[2-fluoro-4-[2-[(1-methylpyrazol-4-yl)amino]pyrimidin-5-yl]phenyl]acetamide]: the IC50 (in test [1]; at c-KIT) was 0.0001 to 10 µM each time.
Take `Cn1cnc(Nc2ncc(-c3cc(F)c(CC(=O)Nc4cncc(C(F)(F)F)c4)cc3F)cn2)c1` [Compound P-0078, 2-(2,5-difluoro-4-(2-((1-methyl-1H-imidazol-4-yl)amino)pyrimidin-5-yl)phenyl)-N-(5-(trifluoromethyl)pyridin-3-yl)acetamide]: the IC50 (in test [1]; at c-KIT) was 0.0001 to 10 µM in each case.
Regarding `O=C(Cc1ccc(-c2cnc3[nH]cc(F)c3c2)cc1F)Nc1cncc(C(F)(F)F)c1` [Compound P-0053, 2-[2-fluoro-4-(3-fluoro-1H-pyrrolo[2,3-b]pyridin-5-yl)phenyl]-N-[5-(trifluoromethyl)-3-pyridyl]acetamide], the IC50 (in test [1]; at c-KIT) was 0.0001 to 10 µM in each case.
Take `Cc1ncc(NC(=O)Cc2ccc(-c3cnc4[nH]nc(C5CC5)c4c3)cc2F)cc1C(F)(F)F` [Compound P-0066, 2-(4-(3-cyclopropyl-1H-pyrazolo[3,4-b]pyridin-5-yl)-2-fluorophenyl)-N-(6-methyl-5-(trifluoromethyl)pyridin-3-yl)acetamide]: the concentration for half-maximal inhibition (IC50) (in test [1]; at c-KIT) was 0.0001 to 10 µM throughout.
`COc1ncc(NC(=O)Cc2ccc(-c3cnc4[nH]cc(C(C)=O)c4c3)cc2F)cc1C(F)(F)F` [Compound P-0035, 2-[4-(3-acetyl-1H-pyrrolo[2,3-b]pyridin-5-yl)-2-fluoro-phenyl]-N-[6-methoxy-5-(trifluoromethyl)-3-pyridyl]acetamide]: the IC50 (in test [1]; at c-KIT) was 0.0001 to 10 µM each time.
For `CCC(=O)c1c[nH]c2ncc(-c3ccc(CC(=O)Nc4cnc(C)c(C(F)(F)F)c4)c(F)c3)cc12` [Compound P-0070, 2-[2-fluoro-4-(3-propanoyl-1H-pyrrolo[2,3-b]pyridin-5-yl)phenyl]-N-[6-methyl-5-(trifluoromethyl)-3-pyridyl]acetamide], the 50% inhibitory concentration (IC50) (in test [1]; on c-KIT; at CSF1R) was 0.0001 to 10 µM throughout.
`COc1ncc(NC(=O)Cc2ccc(-c3cnc4[nH]cc(F)c4c3)cc2F)cc1C(F)(F)F` [Compound P-0034, 2-[2-fluoro-4-(3-fluoro-1H-pyrrolo[2,3-b]pyridin-5-yl)phenyl]-N-[6-methoxy-5-(trifluoromethyl)-3-pyridyl]acetamide]: the IC50 (in test [1]; at c-KIT) was 0.0001 to 10 µM each time.
With `Cc1ncc(NC(=O)Cc2ccc(-c3cnc(Nc4cn[nH]c4)nc3)cc2F)cc1C(F)(F)F` [Compound P-0027, 2-[2-fluoro-4-[2-(1H-pyrazol-4-ylamino)pyrimidin-5-yl]phenyl]-N-[6-methyl-5-(trifluoromethyl)-3-pyridyl]acetamide], the IC50 (in test [1]; at c-KIT) was 0.0001 to 10 µM each time.
Take `Cn1cnc(Nc2ncc(-c3ccc(CC(=O)Nc4cncc(C(F)(F)F)c4)c(F)c3)cn2)c1` [Compound P-0052, 2-[2-fluoro-4-[2-[(1-methylimidazol-4-yl)amino]pyrimidin-5-yl]phenyl]-N-[5-(trifluoromethyl)-3-pyridyl]acetamide]: the concentration for half-maximal inhibition (IC50) (in test [1]; on c-KIT) was 0.0001 to 10 µM throughout.
With `COc1ncc(NC(=O)Cc2ccc(-c3cnc(Nc4cn[nH]c4)nc3)cc2F)cc1C(F)(F)F` [Compound P-0026, 2-[2-fluoro-4-[2-(1H-pyrazol-4-ylamino)pyrimidin-5-yl]phenyl]-N-[6-methoxy-5-(trifluoromethyl)-3-pyridyl]acetamide], the IC50 (in test [1]; at c-KIT) was 0.0001 to 10 µM in each case.
`O=C(Cc1ccc(-c2cnc3[nH]cc(Cl)c3n2)cc1F)Nc1cncc(C(F)(F)F)c1` [Compound P-0061, 2-[4-(7-chloro-5H-pyrrolo[2,3-b]pyrazin-2-yl)-2-fluoro-phenyl]-N-[5-(trifluoromethyl)-3-pyridyl]acetamide]: the IC50 (in test [1]; on c-KIT) was 0.0001 to 10 µM throughout.
With `COc1ncc(NC(=O)Cc2ccc(-c3cnc(Nc4cnn5ccccc45)nc3)cc2F)cc1C(F)(F)F` [Compound P-0037, 2-[2-fluoro-4-[2-(pyrazolo[1,5-a]pyridin-3-ylamino)pyrimidin-5-yl]phenyl]-N-[6-methoxy-5-(trifluoromethyl)-3-pyridyl]acetamide], the IC50 (in test [1]; on c-KIT) was 0.0001 to 10 µM throughout.
`Cn1cc(Nc2ncc(-c3ccc(CC(=O)Nc4cc(C(F)(F)F)ccn4)c(F)c3)cn2)cn1` [Compound P-0082, 2-[2-fluoro-4-[2-[(1-methylpyrazol-4-yl)amino]pyrimidin-5-yl]phenyl]-N-[4-(trifluoromethyl)-2-pyridyl]acetamide]: the IC50 (in test [1]; at c-KIT) was 0.0001 to 10 µM in each case.
For `Cn1cc(Nc2ncc(-c3ccc(CC(=O)Nc4cncc(C5CC5)c4)c(F)c3)cn2)cn1` [Compound P-0081, N-(5-cyclopropyl-3-pyridyl)-2-[2-fluoro-4-[2-[(1-methylpyrazol-4-yl)amino]pyrimidin-5-yl]phenyl]acetamide], the IC50 (in test [1]; on c-KIT) was 0.0001 to 10 µM throughout.
With `Cn1cc(Nc2ncc(-c3ccc(CC(=O)Nc4cncc(C(F)(F)F)c4)c(F)c3)cn2)cn1` [Compound P-0084, 2-[2-fluoro-4-[2-[(1-methylpyrazol-4-yl)amino]pyrimidin-5-yl]phenyl]-N-[5-(trifluoromethyl)-3-pyridyl]acetamide], the IC50 (in test [1]; at c-KIT) was 0.0001 to 10 µM throughout.
As for `O=C(Cc1ccc(-c2cnc(Nc3cnn4ccccc34)nc2)cc1F)Nc1ccnc(C(F)(F)F)c1` [Compound P-0033, 2-[2-fluoro-4-[2-(pyrazolo[1,5-a]pyridin-3-ylamino)pyrimidin-5-yl]phenyl]-N-[2-(trifluoromethyl)-4-pyridyl]acetamide], the IC50 (in test [1]; at c-KIT) was 0.0001 to 10 µM each time.

Usually IC50 stands for the concentration that inhibits the measured activity by half.
